# Read-outs that look alike come from different tables or passages of the source.
# Tests used:
# [1] = test system: S. mansoni eggs laid by worm pairs; experiment: Egg counts and egg maturation staging (Vogel and Prata) in vitro; assay type: cell-based, Schistosoma mansoni; conditions: for percent of eggs that are viable at the given maturation stage at 20 µM / percent of eggs that are viable at the given maturation stage at 50 µM: Schistosoma mansoni
# Description: The eggs produced by worm pairs in vitro were counted at day 3 upon treatment using an inverted Leica DM IL microscope (Leica Microsystems, Wetzlar, Germany). Images were captured with a BX41 Olympus (Olympus, Tokyo, Japan) microscope and a brightfield objective 10× served by an Olympus DP23 microscope digital camera and visualized using “CellSens Entry” software (version 3.1.1). Egg maturation morphological score was assigned based on the Vogel and Prata’s staging system of egg maturation previously reported.
# Therefore at 72 h upon worm pairs treatment the eggs were counted and classified by microscopic observation according to the Vogel and Prata staging system of egg maturation and grouped as immature (stages I and II), intermediate/developed (stages III–V), viable or damaged eggs.
# Panel B. Histograms represent the percentages of eggs at different maturation stages +/- SEM counted at 72 h after treatment; 5–6 microscopy images of at least 3 independent experiments were analyzed. Filled red triangles indicate viable eggs at stages I–II (immature); empty red triangles indicate damaged/morphological abnormal eggs at stages I–II (immature); filled red arrows indicate viable eggs at stages III–V (intermediate/developed); empty red arrows indicate damaged/morphological abnormal eggs at stages III-V; ef, egg fragments; sp, sperm cells; oc, oocyte. Scale Bars = 200 μm.
# [2] = test system: adult S. mansoni worm pairs (ovary, ootype, vitellarium, gut); experiment: Carmine-red staining and confocal laser scanning microscopy of adult worm pairs; assay type: cell-based, Schistosoma mansoni; conditions: 72 h
# Method: Carmine Red staining was performed as previously described. […] Images were collected as a single stack.
# To characterize the phenotypic alterations induced by compound treatment in more detail, carmine-red staining, followed by confocal laser scanning microscopy (CLSM) analysis was performed (Fig 5). Sublethal doses of compounds were chosen to preserve the overall parasite viability and pairing. For each compound, 3–5 couples in two independent experiments were analyzed and images of ootype, ovary, vitellarium, testis, gut, and parenchyma were recorded. […] The vitellarium retains a preserved structure in all analyzed samples. […] Accumulation of carmine-red positive particle aggregates was also present in the lumen of the NF2839-treated male worms (Fig 5).
# Fig 5 Confocal microscopy of carmine-red stained adult worm pairs treated with quinolone-based HDAC inhibitors. […] The ovary, ootype and gut are shown. Immature oocytes (io), mature oocytes (mo), ootype (ot) and gastrodermis (ga) are labeled. In the Figure, red filled triangles indicate degenerated mo; empty red triangles indicate egg fragments in the ootypes; asterisks indicate deformed egg in the ootype and carmine red aggregates in the gut lumen, filled red arrows indicate the ga in the gut. Scale bars: 50 μm.
# [3] = 72 h, NF2839 5 and 10 μM, NF2836 20 and 50 μM
smiles,measurement,setting,value
Cn1c(=O)c(OCc2ccc(C(=O)NO)cc2)c(C2CCCCC2)c2ccccc21 [NF2836],% Stage I/II damaged,"[1]; 20 µM, exp.1",97.1%
same,%Stage III/IV/V damaged,"[1]; 20 µM, exp.1",0%
same,Stage I/II damaged counts,"[1]; 20 µM, exp.1",608
same,Stage I/II viable (egg counts),"[1]; 20 µM, exp.1",18
same,Stage II/IV/V viable (egg counts),"[1]; 20 µM, exp.1",0
same,Stage III/IV/V damaged (egg counts),"[1]; 20 µM, exp.1",0
same,egg counts,"[1]; 20 µM, exp.1",626
same,% Stage I/II damaged,"[1]; 20 µM, exp.2",16.0%
same,%Stage III/IV/V damaged,"[1]; 20 µM, exp.2",0%
same,Stage I/II damaged counts,"[1]; 20 µM, exp.2",76
same,Stage I/II viable (egg counts),"[1]; 20 µM, exp.2",378
same,Stage II/IV/V viable (egg counts),"[1]; 20 µM, exp.2",19
same,Stage III/IV/V damaged (egg counts),"[1]; 20 µM, exp.2",0
same,% Stage I/II damaged,"[1]; 20 µM, exp.3",79.8%
same,%Stage III/IV/V damaged,"[1]; 20 µM, exp.3",0%
same,Stage I/II damaged counts,"[1]; 20 µM, exp.3",408
same,Stage I/II viable (egg counts),"[1]; 20 µM, exp.3",103
same,Stage II/IV/V viable (egg counts),"[1]; 20 µM, exp.3",0
same,Stage III/IV/V damaged (egg counts),"[1]; 20 µM, exp.3",0
same,egg counts,"[1]; 20 µM, exp.3",511
same,"% Stage I/II damaged, Media","[1]; 20 µM, mean of experiments",64.3%
same,"%Stage III/IV/V damaged, Media","[1]; 20 µM, mean of experiments",0%
same,% Stage I/II damaged,"[1]; 50 µM, exp.1",99.8%
same,%Stage III/IV/V damaged,"[1]; 50 µM, exp.1",0%
same,Stage I/II damaged counts,"[1]; 50 µM, exp.1",448
same,Stage I/II viable (egg counts),"[1]; 50 µM, exp.1",1
same,egg counts,"[1]; 50 µM, exp.1",449
same,% Stage I/II damaged,"[1]; 50 µM, exp.2",92.6%
same,%Stage III/IV/V damaged,"[1]; 50 µM, exp.2",0%
same,Stage I/II damaged counts,"[1]; 50 µM, exp.2",287
same,Stage I/II viable (egg counts),"[1]; 50 µM, exp.2",23
same,egg counts,"[1]; 50 µM, exp.2",310
same,"% Stage I/II damaged, Media","[1]; 50 µM, mean of experiments",96.2%
same,"%Stage III/IV/V damaged, Media","[1]; 50 µM, mean of experiments",0%
same,egg damage / viability,[1]; [3],eggs appeared seriously damaged and not viable
same,egg maturation (Vogel and Prata staging),[1]; [3],essentially all eggs were arrested in stage I/II
same,number of eggs laid by worm pairs,[1]; [3],did not observe a decrease in the number of eggs
same,percent of eggs that are viable at the given maturation stage at 20 µM,"[1]; 20 µM, exp.1, read-out: % Stage I/II viable",2.9%
same,percent of eggs that are viable at the given maturation stage at 20 µM,"[1]; 20 µM, exp.1, read-out: %Stage II/IV/V viable",0%
same,percent of eggs that are viable at the given maturation stage at 20 µM,"[1]; 20 µM, exp.2, read-out: % Stage I/II viable",79.6%
same,percent of eggs that are viable at the given maturation stage at 20 µM,"[1]; 20 µM, exp.2, read-out: %Stage II/IV/V viable",4%
same,percent of eggs that are viable at the given maturation stage at 20 µM,"[1]; 20 µM, exp.3, read-out: % Stage I/II viable",20.2%
same,percent of eggs that are viable at the given maturation stage at 20 µM,"[1]; 20 µM, exp.3, read-out: %Stage II/IV/V viable",0%
same,percent of eggs that are viable at the given maturation stage at 20 µM,"[1]; 20 µM, mean of experiments, read-out: % Stage I/II viable, Media",34.2%
same,percent of eggs that are viable at the given maturation stage at 20 µM,"[1]; 20 µM, mean of experiments, read-out: %Stage II/IV/V viable, Media",1.3%
same,percent of eggs that are viable at the given maturation stage at 50 µM,"[1]; 50 µM, exp.1, read-out: % Stage I/II viable",0.223%
same,percent of eggs that are viable at the given maturation stage at 50 µM,"[1]; 50 µM, exp.1, read-out: %Stage II/IV/V viable",0%
same,percent of eggs that are viable at the given maturation stage at 50 µM,"[1]; 50 µM, exp.2, read-out: % Stage I/II viable",7.4%
same,percent of eggs that are viable at the given maturation stage at 50 µM,"[1]; 50 µM, exp.2, read-out: %Stage II/IV/V viable",0%
same,percent of eggs that are viable at the given maturation stage at 50 µM,"[1]; 50 µM, mean of experiments, read-out: % Stage I/II viable, Media",3.8%
same,percent of eggs that are viable at the given maturation stage at 50 µM,"[1]; 50 µM, mean of experiments, read-out: %Stage II/IV/V viable, Media",0%
same,samples with decrease of cellularity in the ovary mature compartment,[2]; 50 uM,5/11
same,ootype content,"[2]; higher concentration (NF2836 50 μM, NF2839 10 μM)",either an empty ootype or no properly developed eggs and/or egg fragments
same,gut morphology,"[2]; higher concentration (NF2836 50 μM, NF2839 10 μM), all worms, in particular males",gut dilation with a dramatic decrease in the number of surface amplification and lumen epithelial thinning
same,ootype containing damaged eggs,"[2]; lower concentrations (NF2836 20 μM, NF2839 5 μM)",5/7
same,overall morphology of the ovary,[2]; sublethal doses,seemed not to be affected

# — PMC10927086, “Effects of structurally distinct human HDAC6 and HDAC6/HDAC8 inhibitors against S. mansoni larval and adult worm stages” (PLOS Neglected Tropical Diseases, 2024)
